From US8093060B2, “Multisite phosphorylated peptide (protein) recognizing compound and detection method, imaging method, alzheimer's disease diagnosing method and reagent kit using the same” (Canon Kabushiki Kaisha, priority 2008, dated 2012)
Entries after “also recorded” stand apart in the source; their conditions may differ.

What was measured:
Tau1P = biological target: T1, Tau1P (Homo sapiens, UniProt P10636); assay: Fluorescence titration of BODIPY-Zn(Dpa) with Tau1P; assay type: binding
T1 construct: made in house; host or cells: chemical solid-phase synthesis
Description: The phosphorylated peptide-recognizing ability of BODIPY-Zn(Dpa) compound 9 (hereinafter referred to as BODIPY-Zn(Dpa)) was evaluated by measuring fluorescence spectra. Measurement was performed under the following conditions: [BODIPY-Zn(Dpa)]=5 μM; pH 7.2; 50 mM HEPES buffer; and 25° C. The excitation wavelength was λex=530 nm. […] When Tau2P was excessively added, this change reached saturation. The […] calculated from the fluorescence changes was 2.75×10^5 M^−1.

[1] = system: phosphorylated tau protein; assay: Fluorescence staining of AD-affected human brain hippocampal tissue sections, costaining with tau antibodies; details: 10 μM probe
Description: To investigate whether an excessively phosphorylated tau protein in brain tissues can be detected, a fluorescence staining experiment of hippocampal tissue sections from a human brain affected by Alzheimer (AD) and a normal brain was performed using BODIPY-Zn(Dpa). Specifically, hippocampal tissue sections from the AD-affected human brain or the normal brain were deparaffinized (xylene immersion for 5 min was repeated three times, then each section was immersed in 100%, 90%, 80% and 70% aqueous ethanol solution in stages [for 2 min each], and finally washed twice with water for 5 min), lipofuscin was removed (washed twice with PBS for 2 min, immersed in 0.25% by weight permanganate potassium/PBS for 30 min, washed twice with PBS for 2 min, immersed in 1% by weight oxalic acid and 1% by weight potassium pyrosulfate/PBS for 6 min and finally washed twice with PBS for 2 min), trypsin treatment was performed (washed twice with PBS-Tween at room temperature for 2 min and 0.05% Trypsin/PBS at 37° C. for 15 min), and finally washed twice with PBS-Tween at room temperature for 5 min, and costaining was performed using an antibody and BODIPY-Zn(Dpa). First, blocking was performed with 10% goat serum (37° C., 30 min) to remove 10% goat serum, then a primary antibody was added, and a reaction was performed at 4° C. for 17 to 19 h. […]

[2] = biological target: T2, nonphosphorylated Tau aggregate (n-Tau) (Homo sapiens, UniProt P10636); assay: Fluorescence staining of nonphosphorylated tau aggregate prepared in vitro; assay type: binding; details: 10 μM dye
T2 construct: made in house; host or cells: Escherichia coli
Description: Tau proteins (8 μM) expressed by Escherichia coli and heparin (1.6 μM) were incubated at 37° C. for 20 days to prepare a tau aggregate. A phosphorylated tau aggregate was similarly prepared using tau proteins phosphorylated with GSK-3β in vitro. The results of Pro-Q diamond staining after performing SDS-PAGE confirmed that the in-vitro phosphorylation was performed with a phosphorylation degree of 6 mol P/mol Tau.
10 μM BODIPY-Zn(Dpa) or 10 μM thioflavine T (may be referred to as ThT) were added to the prepared tau aggregate or phosphorylated tau aggregate. After the addition, the mixture was washed twice with 0.5 mM Zn(NO3)2, and a suspension (0.5 μL) of the stained phosphorylated tau aggregate was air-dried on a cover glass and observed under a confocal laser scanning microscope (OLYMPUS FV-1000, Obj. lens 100×).

[3] = biological target: T3, phosphorylated tau aggregate (Homo sapiens, UniProt P10636); assay: Fluorescence titration of phosphorylated tau aggregate against 100 nM BODIPY-Zn(Dpa); assay type: binding; details: compared with tau aggregate and amyloid β aggregate
T3 construct: made in house; host or cells: Escherichia coli
Description: The ranges of concentrations at which a phosphorylated tau aggregate, a tau aggregate, and an amyloid β aggregate interact with BODIPY-Zn(Dpa) were examined by titration. Titration was performed in the range of tau concentrations of 0 to 320 nM (0 to 14 μg/mL) against 100 nM of BODIPY-Zn(Dpa). Using a solvent obtained by adding 10% DMSO and 10 μM Zn(NO3)2 to HBS (10 mM HEPES (pH 7.4), 150 mM NaCl), the solution was incubated at 37° C. for 60 min, and fluorescence was measured (excitation wavelength, 490 nm; fluorescence wavelength, 545 nm).

tau aggregate = biological target: T4, tau aggregate (Homo sapiens, UniProt P10636); assay: Fluorescence titration of BODIPY-Zn(Dpa) against tau aggregate (EC50); assay type: binding; details: aggregate 1 μg/mL, 37° C., 30 min
T4 construct: made in house; host or cells: Escherichia coli
Description: BODIPY-Zn(Dpa) was titrated against a phosphorylated tau aggregate, a tau aggregate, and an amyloid β aggregate to obtain EC50 (a probe concentration at which a half value of the maximum change (ΔFmax) in fluorescence intensity is observed). BODIPY-Zn(Dpa) was titrated against an aggregate at a predetermined concentration (1 μg/mL), and changes in fluorescence intensity at each concentration (ΔF) were plotted. Using a solvent obtained by adding 10% DMSO and 100 μM Zn(NO3)2 to HBS (10 mM HEPES (pH 7.4), 150 mM NaCl), the solution was incubated at 37° C. for 30 min, and fluorescence was measured (excitation wavelength, 490 nm; fluorescence wavelength, 545 nm).

T3 sequence (P10636 1-441 isoform P10636-8): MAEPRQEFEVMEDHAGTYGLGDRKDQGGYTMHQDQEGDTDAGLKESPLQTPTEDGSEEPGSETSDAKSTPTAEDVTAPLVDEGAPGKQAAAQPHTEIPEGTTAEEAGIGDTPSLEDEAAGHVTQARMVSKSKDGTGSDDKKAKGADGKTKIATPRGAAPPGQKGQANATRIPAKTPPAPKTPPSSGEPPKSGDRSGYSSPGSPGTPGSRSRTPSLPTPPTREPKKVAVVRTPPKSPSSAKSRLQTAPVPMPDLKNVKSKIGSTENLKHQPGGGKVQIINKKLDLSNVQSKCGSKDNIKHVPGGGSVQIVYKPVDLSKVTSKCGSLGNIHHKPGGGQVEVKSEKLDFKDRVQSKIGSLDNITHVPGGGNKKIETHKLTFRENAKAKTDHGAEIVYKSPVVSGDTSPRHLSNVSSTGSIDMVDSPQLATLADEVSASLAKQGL
T4 sequence (P10636 1-441 isoform P10636-8): as above
T2 sequence (P10636 1-441 isoform P10636-8): as above

CC1=C(c2ccc(CN(C)Cc3ccccn3)nc2)C(C)=[N+]2C1=C(c1cc(OCCOCCOCCO)cc(OCCOCCOCCO)c1)c1c(C)c(-c3ccc(CN(C)Cc4ccccn4)nc3)c(C)n1[B-]2(F)F.O=[N+]([O-])[O-].O=[N+]([O-])[O-].O=[N+]([O-])[O-].O=[N+]([O-])[O-].[Zn+2].[Zn+2] [BODIPY-Zn(Dpa)]
I/I0 - 1 at saturation (Tau1P; Tau 1P): No change | fluorescence intensity change on addition of peptide (Tau1P; Tau1P, monophosphorylated): no major change was observed; also recorded: does not change | coexistence of fluorescence with Tau-2 and AT8 antibody staining [1]: coexisted | staining of aggregate [2]: is not observed | concentration at which fluorescence change occurred [3]: at the lowest concentration | EC50 (tau aggregate): 0.08 µM
